Assay results taken from patent US20170343554A1, “METHODS OF MEASURING ERBB SIGNALING PATHWAY ACTIVITY TO DIAGNOSE AND TREAT CANCER PATIENTS” (Celcuity LLC, priority 2014, published 2017).
Like-named read-outs stand apart in the source and are kept apart here.

Experiments:
[1] = system: cells from two HER2 overexpressing breast cancer patients (Patient B1 and B4); test: CELx Pathway Shutdown test, impedance biosensor CReMS, EGF perturbation (Example 1); type: cell-based, human
From the text: The change in impedance for a particular well is proportional to the number of cells and type of attachment the cells have with the impedance microplate. Changes in impedance indicate a response to perturbation of these small cell populations.
Prior to addition to the impedance microplate, the cells were removed from their growth container with versene, counted, and re-suspended in media without serum or other growth factors.

[2] = system: BT474 breast cancer cell line cells; test: Cell attachment signal (CAS) diagnostic assay, impedance biosensor (Example 6); type: cell-based; conditions: lapatinib with NRG1, fulvestrant with estradiol
Description: (§1) The analyte of the diagnostic test used herein is the cell attachment signal (CAS) that viable patient cells generate, alone or in the presence of cell antagonists, when placed in the well of a microplate and analyzed with an impedance biosensor. For every test, the CAS is measured and analyzed for […] of patient cell samples. • 1) Patient cells only (C) • 2) Patient cells+pathway factor(s) (CF) • 3) Patient cells+pathway factor(s)+confirming agent (CCF)
(§2) To detect whether the signaling pathway is functioning normally, the signaling pathway in a patient's diseased cells are perturbed and the resulting activity is compared to the effect the perturbant has on the signaling pathway activity of their healthy cells or the effect of perturbant on the signaling pathway activity of healthy cells from a patient or patients known to be free of disease. The assay measures the change in CAS between the CF and C cells in a patient's healthy cells relative to the change in CAS between the CF and C cells in the diseased cells. Alternatively, the assay can measure the change in CAS between the CF and the C cells in a patient's diseased cells that can be compared to a known result from a patient or pool of patients known to be free of disease. Essentially, if the signaling pathways are abnormal, the CAS change between the healthy and diseased cells will be different. The measurement of change in CAS between CF and CCF diseased cells from a subject provides confirmation that the CF CAS represents activity of the signaling pathway of interest. In the case where CCF is not changed relative to CF, this would indicate that the signaling pathway activity in CF represents some other signaling pathway activity that is not related to the condition of interest. In these cases, the patient would not be considered to have the disease being analyzed.
(§3) Studies were performed confirming the ability of this cell analysis method to measure specific pathway activity in primary non-transformed malignant and healthy epithelial cells as well as cell lines. Representative data from these studies is shown in FIGS. 10 and 11 for two critical pathways involved in breast cancer, PI3K and ERα.

[3] = system: Patient 54 primary breast cancer cells; test: as above; type: cell-based, human; conditions: Patient 54 primary tumor cells, lapatinib with NRG1, fulvestrant with estradiol
Description: as §1, §2, §3

[4] = system: cancer patients (Patients B1, B2, B4, C1, C2); conditions: cited from earlier work
[5] = system: HER2 signaling pathway activity in viable breast cancer cells of non-overexpressed HER2 patients; test: CELx test of HER2 signaling pathway activity by CAS with perturbing and confirming agents (Example 7); type: cell-based, human; conditions: for % Attenuation of NRG1 Signal: non-overexpressing HER2, HER2-driven disease, clinically relevant single concentration; for attenuation of the NRG1 and EGF driven activity, comparison in words: five patients of Table 17, single concentration
From the text: Analyte and measurand: The analyte of the diagnostic test used herein is the cell attachment signal (CAS) that viable patient cells generate, alone or in the presence of specific cell signaling pathway perturbants, when placed in the well of an impedance biosensor microplate and continuously measured for electrical impedance. For every test, the CAS is continuously measured and used in the measurand algorithm for up to four portions of patient cell samples from the same patient. • 1. Patient cells only (C) • 2. Patient cells+perturbing pathway factor 1 (CF1) • 3. Patient cells+perturbing pathway factor 2 (CF2) (if necessary) • 4. Patient cells+perturbing pathway factor(s)+Confirming agent (CCF)
The CAS is quantified for each of the up to four portions of patient samples tested (C, CF1, CF2, CCF). To quantify the signaling pathway activity of a patient's diseased cells, the CAS measured in the CF1 and/or CF2 portions is compared to the CAS measured in the C portion. This enables determination of the change in CAS between the CF and C sample portions relative to the change in CAS between the CCF and CF sample portions to confirm how much of the change between CF and C is related to the signaling pathway of interest.
In using this confirming agent, the difference between the CAS of CF1 and/or CF2 and C can be correctly apportioned to HER2 participation. When this confirming agent is applied to cell samples before the perturbing agent, the perturbing agent is blocked from HER2-receptor-related activities thereby generating a CAS value for CCF below the CF1 and/CF2 CAS values by an amount proportional to the participation of the HER2 receptor in the CF1 and/or CF2 change relative to C.
Standard media based on DMEM/F12 without serum, with antibiotics (e.g. penicillin, streptomycin, amphotericin), and HEPES buffer were purchased and used as delivered from VWR (Radnor, Pa.) or Life Technologies (Grand Island, N.Y.).
The commercial-source cell lines were received on dry ice and cultured according to recommendation by the commercial provider. […] Prior to addition to the impedance microplate, the cells were removed from their growth container with trypsin/EDTA solution, counted, and re-suspended in media with antibiotics, without serum, or other growth factors.
The test procedure used (hereinafter referred to as CELx) comprised the following steps, all performed in 5% CO2, 85% humidity, at 37° C.: • 1. Cell Seeding: 180 uL aliquots containing 15,000 viable epithelial cells from each patient or cell line in mammary epithelial growth media with antibiotics, without serum, or other growth factors were distributed to each designated well (C, CCF, CF1, CF2) of an impedance microplate. Impedance was continuously measured throughout steps 2-4 described below. • 2. Confirming agent (20 uL) was added six hours after seeding to pre-specified CCF wells for each cell sample. […] Perturbing Factors were added (20 uL) 18 hours after seeding to pre-specified CF wells for each sample. Wells not receiving perturbing factor received media as control. • 4. Continuous impedance recordings were made for each test well for each patient typically for at least 15 hours after the perturbing agents were added.

[6] = system: breast cancer patient cells; test: CELx Pathway Shutdown single drug tests, impedance biosensor CReMS (Example 4); type: cell-based, human; conditions: one patient breast cancer cell sample expected to be a responder (FIG. 8B)
Description: The physiologic change of the cells and drugs tested was measured with an impedance biosensor CReMS and the summary output from the CReMS is recorded in FIG. 4.
In those experiments involving a combination of drugs, the procedures described in Example 3 were utilized. The list of patient cells and the drug tested with the cells is characterized in FIG. 4.

[7] = system: MAPK signaling pathway activity of cell sample C54; test: CAS measurement after culture in fresh or non-fresh base media (Example 8); type: cell-based
Description: Many cell screening assays prescribe a simplified media-buffer that cells are placed in before and during the short time they are tested. The present invention with viable primary patient cells is performed with a base media used to maintain viable primary cell samples such that the cell population remains viable and retains its heterogeneity of individual cell types and a normal distribution of cells representing the different phases of the cell cycle during the complete test time of continuous measurement. […] A further aspect of the method includes replacing the base media with fresh base media within 72 hours of initiating contact with the perturbing or confirming agents.
The data highlights the importance of culturing the cells in fresh base media before a cell sample is contacted with a perturbing or confirming agent.

[8] = system: cells from two breast cancer patients (Patients B1 and B2); test: CELx Anti-Proliferative test, impedance biosensor CReMS (Example 2); type: cell-based, human; conditions: for responsiveness, CReM output (cell index) compared to control cells: continuous recording 48-72 hours
Description: A CELx Anti-Proliferative test was performed using cells from two breast cancer patients (Patients B1 and B2) and the drug Paclitaxel. The physiologic change of the B land B2 cells during the test was measured with an impedance biosensor CReMS and the output from the CReMS is recorded in FIGS. 2A and 2B. The comparison of the CELx test results and the third party clinical reference is recorded in FIG. 2C.
The CReMS, microplate, reagents, and buffers used in Example 1 are the same as those employed in Example 2, except for the therapeutic agent tested. In Example 2, the therapeutic agent, paclitaxel, was tested. Paclitaxel was purchased from Selleck Chemicals (TX, USA).
Breast Cancer cells from Patients B1 and B2 were utilized and handled in the same manner as described in Example 1.
Between 6,000-12,000 cells in each well were seeded onto the impedance microplate containing 120 uL settling media with serum. Forty microliters of the drug paclitaxel were added to one set each of the B1 and B2 cells; another control set of B1 and B2 cells received no drug. The CReMS recording of physiologic change was maintained continuously from when the cells were first seeded on the microplate through complete cellular response, which was between 48-72 hours. The test was performed at 37° C., 5% CO2 and at 75% relative humidity.

Molecule: CS(=O)(=O)CCNCc1ccc(-c2ccc3ncnc(Nc4ccc(OCc5cccc(F)c5)c(Cl)c4)c3c2)o1 [Lapatinib]
- CELx Pathway Shutdown test prediction of patient response ([1]; Patient B1): will respond
- CELx Pathway Shutdown test prediction of patient response ([1]; Patient B4): would respond
- effect of the confirming agent on the CAS generated by the pathway factor [2]: reduces
- effect of the confirming agent on the CAS generated by the pathway factor ([2]; listed as lapatinib): reduced
- effect of the confirming agent on the CAS generated by the pathway factor [3]: reduces
- effect of the confirming agent on the CAS generated by the pathway factor ([3]; listed as lapatinib): reduced
- responsiveness recorded by the third party clinical reference standard ([4]; Patient B1 (breast cancer)): responsive
- responsiveness recorded by the third party clinical reference standard ([4]; Patient B4 (breast cancer)): responsive

Molecule: CCOc1cc2ncc(C#N)c(Nc3ccc(OCc4ccccn4)c(Cl)c3)c2cc1NC(=O)/C=C/CN(C)C [Neratinib]
- % Attenuation of NRG1 Signal ([5]; Patient R20): 104%
- % Attenuation of NRG1 Signal ([5]; Patient R39): 107%
- % Attenuation of NRG1 Signal ([5]; Patient R71): 100%
- % Attenuation of NRG1 Signal ([5]; Patient R82): 105%
- % Attenuation of NRG1 Signal ([5]; Patient R160): 118%
- attenuation of the NRG1 and EGF driven activity, comparison in words [5]: highest percentage attenuation

Molecule: C[C@]12CC[C@@H]3c4ccc(O)cc4C[C@@H](CCCCCCCCC[S+]([O-])CCCC(F)(F)C(F)(F)F)[C@H]3[C@@H]1CC[C@@H]2O (stereo partly drawn) [fulvestrant]
- effect of the confirming agent on the CAS generated by the pathway factor [2]: reversed
- effect of the confirming agent on the CAS generated by the pathway factor ([2]; listed as Fulvestrant): reduced
- effect of the confirming agent on the CAS generated by the pathway factor [3]: reversed
- effect of the confirming agent on the CAS generated by the pathway factor ([3]; listed as Fulvestrant): reduced

Molecule: COc1cc2ncnc(Nc3ccc(F)c(Cl)c3)c2cc1OCCCN1CCOCC1 [Gefitinib]
- response in the CReMS testing [6]: did not show a response

Molecule: EGF: human epidermal growth factor, perturbing agent of HER1-HER2 receptor pairings
- % HER2 Participation, ((CF-C) − (CCF-C))/(CF-C))*100 ([5]; Patient R112): 25%
- Measurand (HER2 signal), ~(CF-C) − (CCF-C) ([5]; Patient R112): 103
- Total Ligand Signal (CF-C) ([5]; Patient R112): 398
- CAS (CCF), confirming factor + perturbing factor addition sample ([5]; Patient R112, HER2 participation confirming factor added before the perturbing ligand): 337
- signaling pathway activity (CAS) on perturbation ([7]; cell sample C54 cultured in fresh base media prior to contact): significant MAPK signaling pathway activity
- signaling pathway activity (CAS) on perturbation ([7]; cell sample C54 cultured in non-fresh base media prior to perturbation): no signaling pathway activity

Molecule: Pertuzumab
- % Attenuation of NRG1 Signal ([5]; Patient R71): 68%
- % Attenuation of NRG1 Signal ([5]; Patient R160): 95%
- attenuation of the NRG1 and EGF driven activity, comparison in words [5]: significant attenuation
- amount of pertuzumab inhibition of NRG1 driven activity, compared with SKBR3 ([5]; non-overexpressed HER2 patient sample R39 versus overexpressed HER2 cell line SKBR3): greater

Molecule: CC(=O)O[C@H]1C(=O)[C@@]2(C)[C@H]([C@H](OC(=O)c3ccccc3)[C@]3(O)C[C@H](OC(=O)[C@H](O)[C@@H](NC(=O)c4ccccc4)c4ccccc4)C(C)=C1C3(C)C)[C@]1(OC(C)=O)CO[C@@H]1C[C@@H]2O [Paclitaxel]
- CELx Anti-Proliferative test prediction of patient response ([8]; Patient B1): will respond
- responsiveness, CReM output (cell index) compared to control cells ([8]; Patient B1 cells): immediate and continuous responsiveness
- CELx Anti-Proliferative test prediction of patient response ([8]; Patient B2): will respond
- time after which the CReM output reverses (test cells begin proliferating, no longer responsive) ([8]; Patient B2 cells): roughly 24 hours
- responsiveness, CReM output (cell index) compared to control cells ([8]; Patient B2 cells): initial responsiveness
- responsiveness recorded by the third party clinical reference standard ([4]; Patient B1 (breast cancer)): responsive
- responsiveness recorded by the third party clinical reference standard ([4]; Patient B2 (breast cancer)): responsive
